Experimental data reported in US20240366770A1, “DEGRADATION OF BRUTON'S TYROSINE KINASE (BTK) BY CONJUGATION OF BTK INHIBITORS WITH E3 LIGASE LIGAND AND METHODS OF USE” (BeiGene Switzerland GmbH, priority 2021, published 2024).

How the values were obtained:
[1] = biological target: T1, BTK (Homo sapiens, UniProt Q06187); assay: BTK degradation in TMD-8 cells (HTRF assay); type: cell-based; settings: 6 h treatment, IC50 (DC50) of BTK degradation
T1 construct: High control=Cell group with added DMSO and without compound, indicating microplate readings without BTK degradation; endogenous in cells; host or cells: TMD-8
Experimental: (§1) TMD-8 cells were treated with compounds diluted in 0.2% DMSO, dilution was done according to the following protocol: (1) making 500× stock solution in DMSO from 1 mM by 6-fold dilution, total 8 doses were included; (2) making 2× solution in cell culture medium by transferring 0.5 μl 500× stock solution into 125 μl medium; (3) adding 15 μl of 2× solution to cells for incubation of 6 h.
After 6 h treatment, 10 μl 4× lysis buffer was added to each well; the plate was sealed and incubated for 30 min at room temperature on a plate shaker; Once the cells was lysed, 16 μL of cell lysate were transferred to a PE 384-well HTRF detection plate; 4 μL of pre-mixed HTRF antibodies were added to each well; the plate was covered with a plate sealer, and then spinned at 1000 rpm for 1 min, then incubated overnight at room temperature; the results were read on BMG PheraStar with HTRF protocol (337 nm-665 nm-620 nm).
The IC50 (DC50) value of a compound can be obtained by fitting the following equation
(§2) wherein, X and Y are known values, and IC50, Hillslope, Top and Bottom are the parameters obtained by fitting with software. Y is the inhibition percentage (calculated from the equation), X is the concentration of the compound; IC50 is the concentration of the compound when the 50% inhibition is reached. The smaller the IC50 value is, the stronger the inhibitory ability of the compound is. Vice versa, the higher the IC50 value is, the weaker the ability the inhibitory ability of the compound is; Hillslope represents the slope of the fitted curve, generally around 1 *; Bottom represents the minimum value of the curve obtained by data fitting, which is generally 0%±20%; Top represents the maximum value of the curve obtained by data fitting, which is generally 100%±20%. The experimental data were fitted by calculating and analyzing with Dotmatics data analysis software.

[2] = tested on: HEK-293 cells; assay: HEK-293 cytotoxicity detection (CellTiter-Glo); type: cell-based; settings: Homo sapiens; HEK-293 cells, 72 h incubation, CellTiter-Glo luminescence, IC50 of cell proliferation inhibition; read-out: HEK293
Experimental: as §1, with “HEK-293 cells” for “TMD-8 cells”, “from 5” for “from 1”, “by 4-fold” for “by 6-fold”, “0.5 ul” for “0.5 μl”, “adding 50” for “adding 15”, “of 72” for “of 6”
25 μl of the CellTiter-Glo®Reagent [(Promega) -Cat No. G7572] was added to each well in the 96-well plate. The contents were mixed for 2 minutes on an orbital shaker to induce cell lysis. The plate was then allowed to incubate at room temperature for 10 minutes to stabilize luminescent signal. Luminescence was recorded on BMG PheraStar with luminescence protocol.
The IC50 value of a compound can be obtained by fitting the following equation
as §2, with “Wherein,” for “wherein,”

T1 sequence (Q06187 whole entry): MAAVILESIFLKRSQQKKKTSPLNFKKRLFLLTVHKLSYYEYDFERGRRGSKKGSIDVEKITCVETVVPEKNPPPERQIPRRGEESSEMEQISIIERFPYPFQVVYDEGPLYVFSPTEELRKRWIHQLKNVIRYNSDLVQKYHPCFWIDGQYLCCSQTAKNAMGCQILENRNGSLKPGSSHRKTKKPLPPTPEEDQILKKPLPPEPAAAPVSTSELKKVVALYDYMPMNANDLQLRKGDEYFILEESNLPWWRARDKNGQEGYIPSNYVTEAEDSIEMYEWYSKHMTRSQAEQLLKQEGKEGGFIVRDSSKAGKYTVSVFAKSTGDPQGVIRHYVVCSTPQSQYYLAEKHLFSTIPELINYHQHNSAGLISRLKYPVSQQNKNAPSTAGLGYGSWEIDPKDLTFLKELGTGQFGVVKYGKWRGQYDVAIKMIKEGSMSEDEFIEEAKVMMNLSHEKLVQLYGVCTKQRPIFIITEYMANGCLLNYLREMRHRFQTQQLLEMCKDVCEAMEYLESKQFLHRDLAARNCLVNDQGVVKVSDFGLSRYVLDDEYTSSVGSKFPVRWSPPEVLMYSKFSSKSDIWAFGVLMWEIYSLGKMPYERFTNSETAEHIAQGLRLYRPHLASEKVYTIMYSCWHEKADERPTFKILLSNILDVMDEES

Row | DC50 [1] [nM] | SMILES | IC50 [2] [µM]
1 | 1.3 | Cc1cc(-c2ncnc3[nH]c4cc(C5CCN(C6CC(c7ccc([C@H]8CCC(=O)NC8=O)cc7)C6)C5)ccc4c23)ccc1[C@@H](C)NC(=O)c1nc(C(C)(C)C)no1 (stereo partly drawn) [Example 20, 3-(tert-butyl)-N-((1R)-1-(4-(7-(1-(3-(4-((R)-2,6-dioxopiperidin-3-yl)phenyl)cyclobutyl)pyrrolidin-3-yl)-9H-pyrimido[4,5-b]indol-4-yl)-2-methylphenyl)ethyl)-1,2,4-oxadiazole-5-carboxamide] | 3.52
2 | 0.609 | Cc1cc(-c2ncnc3[nH]c4cc(C5CCN(C6CC(c7ccc([C@@H]8CCC(=O)NC8=O)cc7)C6)C5)ccc4c23)ccc1[C@@H](C)NC(=O)c1nc(C(C)(C)C)no1 (stereo partly drawn) [Example 21, 3-(tert-butyl)-N-((1R)-1-(4-(7-(1-(3-(4-((S)-2,6-dioxopiperidin-3-yl)phenyl)cyclobutyl)pyrrolidin-3-yl)-9H-pyrimido[4,5-b]indol-4-yl)-2-methylphenyl)ethyl)-1,2,4-oxadiazole-5-carboxamide] | 3.6
3 | 0.211 | Cc1cc(-c2ncnc3[nH]c4cc(N5CCN(CC6CCN(c7ccc(N8CCC(=O)NC8=O)c(C)c7)CC6)CC5)ccc4c23)ccc1[C@@H](C)NC(=O)c1noc(C(C)(C)C)n1 [Example 22, (R)-5-(tert-butyl)-N-(1-(4-(7-(4-((1-(4-(2,4-dioxotetrahydropyrimidin-1(2H)-yl)-3-methylphenyl)piperidin-4-yl)methyl)piperazin-1-yl)-9H-pyrimido[4,5-b]indol-4-yl)-2-methylphenyl)ethyl)-1,2,4-oxadiazole-3-carboxamide] | > 10
4 | 0.608 | Cc1cc(-c2ncnc3[nH]c4cc(N5CCN(CC6CCN(c7ccc(N8CCC(=O)NC8=O)cc7)CC6)CC5)ccc4c23)c(F)cc1[C@@H](C)NC(=O)c1nc(C(C)(C)C)no1 [Example 23, (R)-3-(tert-butyl)-N-(1-(4-(7-(4-((1-(4-(2,4-dioxotetrahydropyrimidin-1(2H)-yl)phenyl)piperidin-4-yl)methyl)piperazin-1-yl)-9H-pyrimido[4,5-b]indol-4-yl)-5-fluoro-2-methylphenyl)ethyl)-1,2,4-oxadiazole-5-carboxamide] | 2.9
5 | 0.47 | Cc1cc(-c2ncnc3[nH]c4cc(N5CCN(CC6CCN(c7ccc(N8CCC(=O)NC8=O)c(C)c7)CC6)CC5)ccc4c23)c(F)cc1[C@@H](C)NC(=O)c1noc(C(C)(C)C)n1 [Example 24, (R)-5-(tert-butyl)-N-(1-(4-(7-(4-((1-(4-(2,4-dioxotetrahydropyrimidin-1(2H)-yl)-3-methylphenyl)piperidin-4-yl)methyl)piperazin-1-yl)-9H-pyrimido[4,5-b]indol-4-yl)-5-fluoro-2-methylphenyl)ethyl)-1,2,4-oxadiazole-3-carboxamide] | > 10
6 | 0.872 | Cc1cc(-c2ncnc3[nH]c4cc(N5CCN(C6CC(c7ccc([C@@H]8CCC(=O)NC8=O)cc7)C6)CC5)ccc4c23)c(F)cc1[C@@H](C)NC(=O)c1nc(C(C)(C)C)no1 (stereo partly drawn) [Example 25, 3-(tert-butyl)-N—((R)-1-(4-(7-(4-(3-(4-((S)-2,6-dioxopiperidin-3-yl)phenyl)cyclobutyl)piperazin-1-yl)-9H-pyrimido[4,5-b]indol-4-yl)-5-fluoro-2-methylphenyl)ethyl)-1,2,4-oxadiazole-5-carboxamide] | > 10
7 | 2.2 | Cc1cc(-c2ncnc3[nH]c4cc(N5CCN(C6CC(c7ccc([C@H]8CCC(=O)NC8=O)cc7)C6)CC5)ccc4c23)c(F)cc1[C@@H](C)NC(=O)c1nc(C(C)(C)C)no1 (stereo partly drawn) [Example 26, 3-(tert-butyl)-N—((R)-1-(4-(7-(4-(3-(4-((R)-2,6-dioxopiperidin-3-yl)phenyl)cyclobutyl)piperazin-1-yl)-9H-pyrimido[4,5-b]indol-4-yl)-5-fluoro-2-methylphenyl)ethyl)-1,2,4-oxadiazole-5-carboxamide] | > 10
8 | 0.299 | Cc1c([C@@H](C)NC(=O)c2noc(C(C)(C)C)n2)ccc(-c2ncnc3[nH]c4cc(N5CCN(CC6CCN(c7ccc(N8CCC(=O)NC8=O)cc7)CC6)CC5)ccc4c23)c1F [Example 27, (R)-5-(tert-butyl)-N-(1-(4-(7-(4-((1-(4-(2,4-dioxotetrahydropyrimidin-1(2H)-yl)phenyl)piperidin-4-yl)methyl)piperazin-1-yl)-9H-pyrimido[4,5-b]indol-4-yl)-3-fluoro-2-methylphenyl)ethyl)-1,2,4-oxadiazole-3-carboxamide] | > 10

Second part, the molecule before the results:

Row | SMILES | DC50 [1] [nM] | IC50 [2] [µM]
9 | Cc1cc(-c2ncnc3[nH]c4cc([C@H]5CCN(CC6CCN(c7ccc(N8CCC(=O)NC8=O)cc7)CC6)C5)ccc4c23)ccc1[C@@H](C)NC(=O)c1nc(C(C)(C)C)no1 [Example 14, 3-(tert-butyl)-N—((R)-1-(4-(7-((R)-1-((1-(4-(2,4-dioxotetrahydropyrimidin-1(2H)-yl)phenyl)piperidin-4-yl)methyl)pyrrolidin-3-yl)-9H-pyrimido[4,5-b]indol-4-yl)-2-methylphenyl)ethyl)-1,2,4-oxadiazole-5-carboxamide] | 0.495 | 3.34
10 | Cc1cc(-c2ncnc3[nH]c4cc(N5CCN(C6CC(c7ccc(C8CCC(=O)NC8=O)cc7)C6)CC5)ccc4c23)ccc1[C@@H](C)NC(=O)c1nc(C(C)(C)C)no1 (stereo partly drawn) [Example 15, 3-(tert-butyl)-N-((1R)-1-(4-(7-(4-(3-(4-(2,6-dioxopiperidin-3-yl)phenyl)cyclobutyl)piperazin-1-yl)-9H-pyrimido[4,5-b]indol-4-yl)-2-methylphenyl)ethyl)-1,2,4-oxadiazole-5-carboxamide] | 0.616 | > 10
11 | Cc1cc(-c2ncnc3[nH]c4cc(N5CCN(CCc6ccc(C7CCC(=O)NC7=O)c(C)n6)CC5)ccc4c23)ccc1[C@@H](C)NC(=O)c1nc(C(C)(C)C)no1 (stereo partly drawn) [Example 16, 3-(tert-butyl)-N-((1R)-1-(4-(7-(4-(2-(5-(2,6-dioxopiperidin-3-yl)-6-methylpyridin-2-yl)ethyl)piperazin-1-yl)-9H-pyrimido[4,5-b]indol-4-yl)-2-methylphenyl)ethyl)-1,2,4-oxadiazole-5-carboxamide] | 0.347 | > 10
12 | Cc1cc(-c2ncnc3[nH]c4cc(N5CCN(CCc6ccc(N7CCC(=O)NC7=O)c(C)c6)CC5)ccc4c23)ccc1[C@@H](C)NC(=O)c1nc(C(C)(C)C)no1 [Example 17, (R)-3-(tert-butyl)-N-(1-(4-(7-(4-(4-(2,4-dioxotetrahydropyrimidin-1(2H)-yl)-3-methylphenethyl)piperazin-1-yl)-9H-pyrimido[4,5-b]indol-4-yl)-2-methylphenyl)ethyl)-1,2,4-oxadiazole-5-carboxamide] | 0.341 | > 10
13 | Cc1cc(CCN2CCN(c3ccc4c(c3)[nH]c3ncnc(-c5ccc([C@@H](C)NC(=O)c6nc(C(C)(C)C)no6)c(C)c5)c34)CC2)ccc1C1CCC(=O)NC1=O (stereo partly drawn) [Example 18, 3-(tert-butyl)-N-((1R)-1-(4-(7-(4-(4-(2,6-dioxopiperidin-3-yl)-3-methylphenethyl)piperazin-1-yl)-9H-pyrimido[4,5-b]indol-4-yl)-2-methylphenyl)ethyl)-1,2,4-oxadiazole-5-carboxamide] | 0.607 | > 10
14 | Cc1cc(-c2ncnc3[nH]c4cc(N5CCN(CCc6ccc(N7CCC(=O)NC7=O)cn6)CC5)ccc4c23)ccc1[C@@H](C)NC(=O)c1nc(C(C)(C)C)no1 [Example 19, (R)-3-(tert-butyl)-N-(1-(4-(7-(4-(2-(5-(2,4-dioxotetrahydropyrimidin-1(2H)-yl)pyridin-2-yl)ethyl)piperazin-1-yl)-9H-pyrimido[4,5-b]indol-4-yl)-2-methylphenyl)ethyl)-1,2,4-oxadiazole-5-carboxamide] | 0.564 | 5.65
